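These data come from cells grown in 96-well plates and exposed to compound for 48 hours at five concentrations. TGI: concentration producing complete growth inhibition.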
Key:
Assay in all cases: growth of human tumour cells (NCI), 48 h
NCI-H460 lung = system: NCI-H460 lung
MDA-N = system: MDA-N
SK-MEL-2 melanoma = system: SK-MEL-2 melanoma
OVCAR-4 ovarian = system: OVCAR-4 ovarian
LOX IMVI melanoma = system: LOX IMVI melanoma
EKVX NSCLC = system: EKVX NSCLC
SK-OV-3 ovarian = system: SK-OV-3 ovarian
COLO 205 colon = system: COLO 205 colon
A498 renal = system: A498 renal
KM12 colon = system: KM12 colon
OVCAR-5 ovarian = system: OVCAR-5 ovarian
BT-549 breast = system: BT-549 breast
NCI/ADR-RES ovarian = system: NCI/ADR-RES ovarian
T-47D breast = system: T-47D breast
DU-145 prostate = system: DU-145 prostate
CAKI-1 renal = system: CAKI-1 renal
HOP-62 NSCLC = system: HOP-62 NSCLC
NCI-H23 lung = system: NCI-H23 lung
UACC-62 melanoma = system: UACC-62 melanoma
HCT-15 colon = system: HCT-15 colon
A549 NSCLC = system: A549 NSCLC
HCT-116 colon = system: HCT-116 colon
MOLT-4 leukemia = system: MOLT-4 leukemia
HT29 colon = system: HT29 colon
786-0 renal = system: 786-0 renal
SF-268 CNS = system: SF-268 CNS
SW-620 colon = system: SW-620 colon
SF-539 CNS = system: SF-539 CNS
HS 578T breast = system: HS 578T breast
SR leukemia = system: SR leukemia
OVCAR-8 ovarian = system: OVCAR-8 ovarian
RXF 393 renal = system: RXF 393 renal
UACC-257 melanoma = system: UACC-257 melanoma
PC-3 prostate = system: PC-3 prostate
TK-10 renal = system: TK-10 renal
SN12C renal = system: SN12C renal
SF-295 CNS = system: SF-295 CNS
MCF7 breast = system: MCF7 breast
ACHN renal = system: ACHN renal
RPMI-8226 leukemia = system: RPMI-8226 leukemia
SNB-75 CNS = system: SNB-75 CNS
CCRF-CEM leukemia = system: CCRF-CEM leukemia
MDA-MB-435 = system: MDA-MB-435
IGROV1 ovarian = system: IGROV1 ovarian
OVCAR-3 ovarian = system: OVCAR-3 ovarian
HCC-2998 colon = system: HCC-2998 colon
SK-MEL-28 melanoma = system: SK-MEL-28 melanoma
HL-60(TB) leukemia = system: HL-60(TB) leukemia
U251 CNS = system: U251 CNS
K-562 leukemia = system: K-562 leukemia
NCI-H226 lung = system: NCI-H226 lung
M14 melanoma = system: M14 melanoma
UO-31 renal = system: UO-31 renal
NCI-H522 lung = system: NCI-H522 lung
MDA-MB-231 breast = system: MDA-MB-231 breast
SNB-19 CNS = system: SNB-19 CNS
HOP-92 NSCLC = system: HOP-92 NSCLC
SK-MEL-5 melanoma = system: SK-MEL-5 melanoma
MALME-3M melanoma = system: MALME-3M melanoma

Q: Which results are given for `C[C@@H]1C[C@H]2OC(=O)[C@@]3(C)CCC[C@@](C)([C@@H]23)[C@@]1(O)CCc1ccoc1`?
A: TGI (NCI-H460 lung): > 100 µM; TGI (MDA-N): > 100 µM; TGI (SK-MEL-2 melanoma): > 100 µM; TGI (OVCAR-4 ovarian): > 100 µM; TGI (LOX IMVI melanoma): > 100 µM; TGI (EKVX NSCLC): > 100 µM; TGI (SK-OV-3 ovarian): > 100 µM; TGI (COLO 205 colon): > 100 µM; TGI (A498 renal): > 100 µM; TGI (KM12 colon): > 100 µM; TGI (OVCAR-5 ovarian): > 100 µM; TGI (BT-549 breast): > 100 µM; TGI (NCI/ADR-RES ovarian): > 100 µM; TGI (T-47D breast): > 100 µM; TGI (DU-145 prostate): > 100 µM; TGI (CAKI-1 renal): > 100 µM; TGI (HOP-62 NSCLC): > 100 µM; TGI (NCI-H23 lung): > 100 µM; TGI (UACC-62 melanoma): > 100 µM; TGI (HCT-15 colon): > 100 µM; TGI (A549 NSCLC): > 100 µM; TGI (HCT-116 colon): > 100 µM; TGI (MOLT-4 leukemia): > 94.4 µM; TGI (HT29 colon): > 100 µM; TGI (786-0 renal): > 100 µM; TGI (SF-268 CNS): > 100 µM; TGI (SW-620 colon): > 100 µM; TGI (SF-539 CNS): > 100 µM; TGI (HS 578T breast): > 100 µM; TGI (SR leukemia): > 88.9 µM; TGI (OVCAR-8 ovarian): > 100 µM; TGI (RXF 393 renal): > 100 µM; TGI (UACC-257 melanoma): > 100 µM; TGI (PC-3 prostate): > 100 µM; TGI (TK-10 renal): > 100 µM; TGI (SN12C renal): > 100 µM; TGI (SF-295 CNS): > 100 µM; TGI (MCF7 breast): > 100 µM; TGI (ACHN renal): > 100 µM; TGI (RPMI-8226 leukemia): > 100 µM; TGI (SNB-75 CNS): > 100 µM; TGI (CCRF-CEM leukemia): > 100 µM; TGI (MDA-MB-435): > 100 µM; TGI (IGROV1 ovarian): > 100 µM; TGI (OVCAR-3 ovarian): > 100 µM; TGI (HCC-2998 colon): > 100 µM; TGI (SK-MEL-28 melanoma): > 100 µM; TGI (HL-60(TB) leukemia): > 88.6 µM; TGI (U251 CNS): > 100 µM; TGI (K-562 leukemia): > 100 µM; TGI (NCI-H226 lung): > 100 µM; TGI (M14 melanoma): > 100 µM; TGI (UO-31 renal): > 100 µM; TGI (NCI-H522 lung): > 100 µM; TGI (MDA-MB-231 breast): > 100 µM; TGI (SNB-19 CNS): > 100 µM; TGI (HOP-92 NSCLC): > 100 µM; TGI (SK-MEL-5 melanoma): > 100 µM

Q: Which results are given for `COc1ccc2c(c1)CC[C@@H]1[C@@H]2CC[C@]2(C)/C(=N/OCCN3CCCC3)CC[C@@H]12`?
A: TGI (NCI-H460 lung): 3.08 µM; TGI (MDA-N): 3.98 µM; TGI (SK-MEL-2 melanoma): 4.2 µM; TGI (MALME-3M melanoma): 3.17 µM; TGI (OVCAR-4 ovarian): 24.3 µM; TGI (LOX IMVI melanoma): 3.19 µM; TGI (EKVX NSCLC): 12.3 µM; TGI (COLO 205 colon): 3.06 µM; TGI (A498 renal): 9.9 µM; TGI (KM12 colon): 6.31 µM; TGI (OVCAR-5 ovarian): 10.1 µM; TGI (BT-549 breast): 22.4 µM; TGI (NCI/ADR-RES ovarian): 28.7 µM; TGI (T-47D breast): 9.64 µM; TGI (DU-145 prostate): 15.5 µM; TGI (CAKI-1 renal): 3.42 µM; TGI (HOP-62 NSCLC): 4.67 µM; TGI (NCI-H23 lung): 19.5 µM; TGI (UACC-62 melanoma): 3.53 µM; TGI (HCT-15 colon): 2.65 µM; TGI (A549 NSCLC): 7.7 µM; TGI (HCT-116 colon): 3.43 µM; TGI (MOLT-4 leukemia): 4.85 µM; TGI (HT29 colon): 3.96 µM; TGI (786-0 renal): 3.37 µM; TGI (SF-268 CNS): 14.4 µM; TGI (SW-620 colon): 3.68 µM; TGI (SF-539 CNS): 3.92 µM; TGI (HS 578T breast): 7.29 µM; TGI (SR leukemia): 4.49 µM; TGI (OVCAR-8 ovarian): 12.4 µM; TGI (RXF 393 renal): 4.16 µM; TGI (UACC-257 melanoma): 3.81 µM; TGI (PC-3 prostate): 13.5 µM; TGI (TK-10 renal): 16.9 µM; TGI (SN12C renal): 15.9 µM; TGI (SF-295 CNS): 4.63 µM; TGI (MCF7 breast): 8.92 µM; TGI (ACHN renal): 15.5 µM; TGI (RPMI-8226 leukemia): 3.65 µM; TGI (SNB-75 CNS): 9.49 µM; TGI (CCRF-CEM leukemia): 3.67 µM; TGI (MDA-MB-435): 2.43 µM; TGI (IGROV1 ovarian): 18.4 µM; TGI (OVCAR-3 ovarian): 16.2 µM; TGI (HCC-2998 colon): 3.49 µM; TGI (SK-MEL-28 melanoma): 2.82 µM; TGI (HL-60(TB) leukemia): 5.53 µM; TGI (U251 CNS): 10.4 µM; TGI (K-562 leukemia): 2.58 µM; TGI (NCI-H226 lung): 5.26 µM; TGI (M14 melanoma): 2.64 µM; TGI (UO-31 renal): 7.54 µM; TGI (NCI-H522 lung): 11.5 µM; TGI (MDA-MB-231 breast): 8.92 µM; TGI (SNB-19 CNS): 28.1 µM; TGI (HOP-92 NSCLC): 6.5 µM; TGI (SK-MEL-5 melanoma): 3.41 µM
